# Results from paper PMC7044277 (Nature Communications, 2020).
# Several values for one entry are separate records, joined by “and”; a condition that tells them apart may be missing. Equal entries are not always repeated.
# Tests used:
# Assay type in all cases: cell-based
# 320 non-olfactory GPCRs [1] = molecular target: T1, 320 non-olfactory GPCRs (Homo sapiens, UniProt Q6U736); conditions: receptor OPN5; replicate values, Fig_4g
# T1 construct: expressed in transfected cells; host or cells: HTLA cells
# T1 sequence (Q6U736 whole entry): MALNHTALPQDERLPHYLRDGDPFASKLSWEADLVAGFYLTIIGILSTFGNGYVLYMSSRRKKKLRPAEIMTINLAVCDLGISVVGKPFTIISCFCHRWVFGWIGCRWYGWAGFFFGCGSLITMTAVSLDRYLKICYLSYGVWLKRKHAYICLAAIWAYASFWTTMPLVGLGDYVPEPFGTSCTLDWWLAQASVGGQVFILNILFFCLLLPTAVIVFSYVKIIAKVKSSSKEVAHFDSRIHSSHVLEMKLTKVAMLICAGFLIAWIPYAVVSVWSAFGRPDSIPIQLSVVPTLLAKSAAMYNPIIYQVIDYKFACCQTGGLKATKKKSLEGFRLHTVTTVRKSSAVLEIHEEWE
# 320 non-olfactory GPCRs [2] = molecular target: 320 non-olfactory GPCRs (Homo sapiens, UniProt P14416)
# Chain of 320 non-olfactory GPCRs (Homo sapiens, UniProt P14416) (P14416 whole entry): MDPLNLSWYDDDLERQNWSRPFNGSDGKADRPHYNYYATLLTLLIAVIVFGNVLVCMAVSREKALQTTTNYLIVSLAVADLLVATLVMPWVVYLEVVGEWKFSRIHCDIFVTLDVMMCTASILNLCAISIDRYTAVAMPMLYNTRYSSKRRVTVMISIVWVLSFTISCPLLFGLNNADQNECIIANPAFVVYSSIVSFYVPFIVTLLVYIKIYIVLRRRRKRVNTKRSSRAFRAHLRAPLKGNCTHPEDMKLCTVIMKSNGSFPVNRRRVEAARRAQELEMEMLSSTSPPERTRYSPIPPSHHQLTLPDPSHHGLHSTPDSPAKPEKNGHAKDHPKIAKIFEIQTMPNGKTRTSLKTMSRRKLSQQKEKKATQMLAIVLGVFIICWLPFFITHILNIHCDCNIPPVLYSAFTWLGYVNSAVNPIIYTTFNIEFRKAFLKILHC
# 320 non-olfactory GPCRs [3] = molecular target: T2, 320 non-olfactory GPCRs (Homo sapiens, UniProt P50391); conditions: receptor NPY4R; replicate values, Fig_4g
# T2 construct: expressed in transfected cells; host or cells: HTLA cells
# T2 sequence (P50391 whole entry): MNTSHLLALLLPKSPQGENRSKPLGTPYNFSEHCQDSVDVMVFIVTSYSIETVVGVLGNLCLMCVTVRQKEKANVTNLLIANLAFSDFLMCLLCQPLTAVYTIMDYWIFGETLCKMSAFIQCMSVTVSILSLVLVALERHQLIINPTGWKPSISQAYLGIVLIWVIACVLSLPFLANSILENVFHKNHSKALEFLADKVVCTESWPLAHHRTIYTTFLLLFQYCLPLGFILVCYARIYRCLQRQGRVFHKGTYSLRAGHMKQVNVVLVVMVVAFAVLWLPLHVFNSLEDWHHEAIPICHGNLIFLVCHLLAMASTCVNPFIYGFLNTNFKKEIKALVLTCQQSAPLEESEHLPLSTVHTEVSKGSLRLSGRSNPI
# 320 non-olfactory GPCRs [4] = molecular target: 320 non-olfactory GPCRs (Homo sapiens, UniProt Q13258); conditions: receptor PTGDR; replicate values, Fig_4g
# Chain of 320 non-olfactory GPCRs (Homo sapiens, UniProt Q13258) (Q13258 whole entry): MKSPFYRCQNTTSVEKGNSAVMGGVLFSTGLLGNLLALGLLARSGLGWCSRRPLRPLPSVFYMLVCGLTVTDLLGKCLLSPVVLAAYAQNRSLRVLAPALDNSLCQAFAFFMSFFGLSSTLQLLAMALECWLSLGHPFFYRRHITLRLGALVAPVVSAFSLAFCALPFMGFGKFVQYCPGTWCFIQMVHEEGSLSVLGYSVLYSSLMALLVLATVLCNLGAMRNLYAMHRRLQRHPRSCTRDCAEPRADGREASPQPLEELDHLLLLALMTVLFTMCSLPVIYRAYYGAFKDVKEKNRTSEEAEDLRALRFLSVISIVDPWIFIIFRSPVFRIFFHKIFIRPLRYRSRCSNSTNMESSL
# 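Throughout, for Fold of Basal: compound tested at 1 µM final concentration.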
# 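Throughout, for GPCRome agonism screen response: fold over basal response of each receptor without drug.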
structure (smiles),measurement,setting,value
CCOc1cccc2cc(C(C)NCC3(O)CCCCC3)oc12 (stereo not shown) [O4LE6],GPCRome agonism screen response,320 non-olfactory GPCRs [1],0.05197 and 0.3541 and 1.246 and 1.464
same,Fold of Basal,320 non-olfactory GPCRs [2],84.6178 and 80.3873 and 78.6628 and 75.3887
same,GPCRome agonism screen response,320 non-olfactory GPCRs [3],0.9177 and 0.7118 and 1.258 and 0.6362
same,GPCRome agonism screen response,320 non-olfactory GPCRs [4],1.067 and 0.797 and 0.4909 and 0.5007
